In patent US8470380B2, “Polyphenol extraction process” (Coressence Limited, priority 2006, dated 2013):

Assays:
[1] = (−)-Epicatechin isomerisation test (heating of an epicatechin test solution, HPLC); format: physicochemical; details: for Epicatechin / Epicatechin % remain: 0.688 mg/ml epicatechin solution, nitrogen-flushed sealed vial; for Other % of start / Other: calculated from 100 − (epicatechin + catechin); for Other: unit assumed; for Catechin / Catechin % of start: formed from 0.688 mg/ml epicatechin
Experimental: In order to test the possibility that epicatechin was isomerising to catechin at higher temperatures, a test solution of 0.688 mg/ml epicatechin was produced and treated as follows: 950 μl of epicatechin was transferred to an auto sampler vial, which was flushed with nitrogen and sealed. The vial was then placed in an oven at a given temperature, for a set time period. The vial was then cooled, the seal removed and 50 μl of internal standard added before analysis. Tests were carried out at 50, 75, 100 and 125° C. for 15 and 30 minutes. Tests were not carried out at 150° C. as the vials are not capable of withstanding the pressure that would be generated.

[2] = Comparison of ethanol extraction with methanol (solubility of epicatechin); format: physicochemical; details: ethanol compared with methanol; implied by extraction data of Table 11
Experimental: A comparative extract using 1 g of apple powder and 10 ml methanol gave a figure of 4663 mg/Kg. In order to test if the low recovery figure above was due to low solubility of epicatechin in ethanol a series of tests were performed using 10, 20 and 30:1 w/w.

Substance epicatechin has an Epicatechin ([1]; 50° C. 15 min) of 0.643 mg/mL, an Epicatechin % remain ([1]; 50° C. 15 min) of 93.53% and an Epicatechin ([1]; 50° C. 30 min) of 0.601 mg/mL. The Epicatechin % remain ([1]; 50° C. 30 min) was 87.40%, the Epicatechin ([1]; 75° C. 15 min) was 0.550 mg/mL and the Epicatechin % remain ([1]; 75° C. 15 min) was 79.92%. For the same substance, the Epicatechin ([1]; 75° C. 30 min) was 0.441 mg/mL, the Epicatechin % remain ([1]; 75° C. 30 min) was 64.07% and the Epicatechin ([1]; 100° C. 15 min) was 0.254 mg/mL. For the same substance, the Epicatechin % remain ([1]; 100° C. 15 min) was 36.97%, the Epicatechin ([1]; 100° C. 30 min) was 0.164 mg/mL and the Epicatechin % remain ([1]; 100° C. 30 min) was 23.88%. The Epicatechin ([1]; 125° C. 15 min) was 0.156 mg/mL, the Epicatechin % remain ([1]; 125° C. 15 min) was 22.71% and the Epicatechin ([1]; 125° C. 30 min) was 0.139 mg/mL. For the same substance, the Epicatechin % remain ([1]; 125° C. 30 min) was 20.27%, the “Other % of start” value ([1]; 50° C. 15 min) was 5.40% and the Other ([1]; 50° C. 15 min) was 0.037 mg/mL. The “Other % of start” value ([1]; 50° C. 30 min) was 10.79%, the Other ([1]; 50° C. 30 min) was 0.074 mg/mL and the “Other % of start” value ([1]; 75° C. 15 min) was 10.59%. For the same substance, the Other ([1]; 75° C. 15 min) was 0.073 mg/mL, the “Other % of start” value ([1]; 75° C. 30 min) was 19.65% and the Other ([1]; 75° C. 30 min) was 0.135 mg/mL. For the same substance, the “Other % of start” value ([1]; 100° C. 15 min) was 16.36%, the Other ([1]; 100° C. 15 min) was 0.113 mg/mL and the “Other % of start” value ([1]; 100° C. 30 min) was 26.07%. The Other ([1]; 100° C. 30 min) was 0.179 mg/mL, the “Other % of start” value ([1]; 125° C. 15 min) was 27.94% and the Other ([1]; 125° C. 15 min) was 0.192 mg/mL. For the same substance, the “Other % of start” value ([1]; 125° C. 30 min) was 36.13%, the Other ([1]; 125° C. 30 min) was 0.249 mg/mL and the Catechin ([1]; 50° C. 15 min) was 0.007 mg/mL. For the same substance, the “Catechin % of start” value ([1]; 50° C. 15 min) was 1.07%, the Catechin ([1]; 50° C. 30 min) was 0.012 mg/mL and the “Catechin % of start” value ([1]; 50° C. 30 min) was 1.81%. The Catechin ([1]; 75° C. 15 min) was 0.065 mg/mL, the “Catechin % of start” value ([1]; 75° C. 15 min) was 9.49% and the Catechin ([1]; 75° C. 30 min) was 0.112 mg/mL. The “Catechin % of start” value ([1]; 75° C. 30 min) was 16.28%, the Catechin ([1]; 100° C. 15 min) was 0.321 mg/mL and the “Catechin % of start” value ([1]; 100° C. 15 min) was 46.68%. For the same substance, the Catechin ([1]; 100° C. 30 min) was 0.344 mg/mL, the “Catechin % of start” value ([1]; 100° C. 30 min) was 50.05% and the Catechin ([1]; 125° C. 15 min) was 0.340 mg/mL. The “Catechin % of start” value ([1]; 125° C. 15 min) was 49.36%, the Catechin ([1]; 125° C. 30 min) was 0.300 mg/mL and the “Catechin % of start” value ([1]; 125° C. 30 min) was 43.60%. For the same substance, the “isomerisation of (−)-epicatechin” value ([1]; temperatures above 100° C.) was “rapid isomerisation” and the solubility of epicatechin [2] was “lower solubility in ethanol than in methanol”.
